Test results: ChEMBL document CHEMBL1132036, “Inhibition of E. coli growth by fullerene derivatives and inhibition mechanism” (Bioorg Med Chem Lett, 1999)
pIC50: −log10 of the molar value.

Legend:
Escherichia coli [1] = assay: Compound was tested for inhibition of Escherichia coli growth; assay type: functional, organism-based
Escherichia coli [2] = assay: Compound was tested for inhibition of Escherichia coli dioxgen consumption.; assay type: functional

Structure (SMILES): O=C(O)C1(C(=O)O)C23c4c5c6c7c8c9c%10c%11c%12c%13c%14c(c-5c5c%15c%16c(c%17c%18c2c2c4c7c4c8c7c%10c8c%10c%11c%11c%13c(c%14%15)c%13c%16c%14c%17c%15c%18c%16c2c4c2c7c8c4c(c%162)c%15c2c%14c%13c%11c%10c24)C513)C61C(C(=O)O)(C(=O)O)C9%121 (stereo not given)
- pIC50 (Escherichia coli [1]): 4.00
- Dioxygen uptake rate (Escherichia coli [2]): 42.2 µM/min

Structure (SMILES): C[N+]1(C)CC23c4c5c6c7c8c4c4c2c2c9c%10c%11c%12c(c5c5c6c6c%13c%14c%15c%16c%17c%18c%19c%20c%21c%22c%23c%24c%25c(c-%16c(c8c%25c4c%24c2c%22c9c2c%21c4c%19c(c%18%14)c8c%13c5c%12c8c4c%112)C7C%156)C%17C%23%20)C%103C1.C[N+]1(C)CC23c4c5c6c7c8c4c4c2c2c9c%10c%11c%12c(c5c5c6c6c%13c%14c%15c%16c%17c%18c%19c%20c%21c%22c%23c%24c%25c(c-%16c(c8c%25c4c%24c2c%22c9c2c%21c4c%19c(c%18%14)c8c%13c5c%12c8c4c%112)C7C%156)C%17C%23%20)C%103C1.[I-].[I-] (stereo not given)
- pIC50 (Escherichia coli [1]): 5.30
- Dioxygen uptake rate (Escherichia coli [2]): 4.1 µM/min

Structure (SMILES): C[N+]12CCN(CC1)C13c4c5c6c7c8c4c4c1c1c9c%10c%11c%12c(c5c5c6c6c%13c%14c%15c%16c%17c%18c%19c%20c%21c%22c%23c%24c%25c(c-%16c(c8c%25c4c%24c1c%22c9c1c%21c4c%19c(c%18%14)c8c%13c5c%12c8c4c%111)C7C%156)C%17C%23%20)C%1032 (stereo not given)
- Dioxygen uptake rate (Escherichia coli [2]): 13.7 µM/min
